Test results reported in EP3381898A1, “SYMMETRICAL TRIS-ARYL-AMIDE DERIVATIVES AND THEIR USE AS ANTI-HEPARANASE” (priority 2017, dated 2018).

Columns and labels:
[1] = tested on: HT1080 (human fibrosarcoma); test: SRB Cell Cytotoxicity Assay (cell proliferation, 72h); assay type: cell-based; conditions: HT-1080, 72 h, read-out: Concentration (µM) of test compounds at which the cell growth is inhibited by 50 %. HT1080
Description: (§1) SRB Cell Cytotoxicity Assay is an assay based upon the quantitative staining of cellular proteins by sulforhodamine B (SRB). This assay can be used for high-throughput drug screening ([…], Nature Protocol. 2006, 1, 112). Sulforhodamine B is an anionic aminoxanthene dye that forms an electrostatic complex with the basic amino acid residues of proteins under moderately acid conditions, which provides a sensitive linear response. […] Inhibition of cell proliferation was then measured by the classical colorimetric SRB Cell Cytotoxicity assay. Absorbance was measured by spectrophotometer at a wavelength of 510 nm and cell proliferation was determined as percent with respect to control cells (cells treated with the vehicle alone). EC50 values were then determined by GraphPad Prism.

[2] = tested on: U2OS (human osteosarcoma); test: as above; assay type: cell-based; conditions: 72 h, read-out: Concentration (µM) of test compounds at which the cell growth is inhibited by 50 %. U2OS
Description: as §1

[3] = tested on: U87MG (human glioblastoma astrocytoma); test: as above; assay type: cell-based; conditions: U-87 MG, 72 h, read-out: Concentration (µM) of test compounds at which the cell growth is inhibited by 50 %. U87MG
Description: as §1

[4] = tested on: HT1080 (human fibrosarcoma); test: Matrigel cell invasion assay; assay type: cell-based; conditions: HT-1080, read-out: Invasion Assay Inhibition HT1080
Description: (§2) Heparanase inhibitors were then evaluated for their activity on the invasive potential of HT1080 (human fibrosarcoma), U87MG (human glioblastoma astrocytoma) and U2OS (human osteosarcoma) human cell lines, using the Matrigel cell invasion assay which allows to assess the cell invasion ability of malignant and normal cells.
(§3) Invasion assay was performed using BioCoat cell culture inserts (BioCoat 8.0µm PET Membrane 24 Well Permeable Supports, Corning). Filters were coated with 100 µl of 300 µg/ml Matrigel dissolved in coating buffer (0.01 M Tris pH 8.0, 0.7% NaCl) (Becton-Dickinson Sciences). DMEM (Dulbecco's Modified Eagle's Medium) containing 5% FBS was added to the lower chambers. Cells were pre-treated with heparanase inhibitors for 24 h, detached and added to the upper chambers in media containing the inhibitors. Cells were allowed to invade for 24 h at 37°C in a CO2 incubator and then unmigrated cells were removed from the upper chamber with a cotton swab. The invading cells were fixed, stained with 0.1% crystal violet for 10 min at room temperature, photographed and counted under inverted microscope.
(§4) Test compounds were analyzed at fixed concentration (2.5 µM) for several fields, in duplicates. Activity of test compounds was compared to the reference compound. Activity of most interesting compound was confirmed in a second cell invasion assay. Data were expressed as the percent invasion with respect to cell migration through uncoated insert membrane.
(§5) Table 3. […] In Invasion assay, data were expressed as the percent invasion (range) with respect to cell migration through uncoated insert membrane. In Adhesion assay, data were expressed as the percent of adhesion with respect to the control (100%).

[5] = tested on: U2OS (human osteosarcoma); test: Matrigel cell invasion assay; assay type: cell-based; conditions: Homo sapiens, read-out: Invasion Assay Inhibition U2OS
Description: as §2, §3, §4, §5

[6] = tested on: U87MG (human glioblastoma astrocytoma); test: Matrigel cell invasion assay; assay type: cell-based; conditions: Homo sapiens, U-87 MG, read-out: Invasion Assay Inhibition U87MG
Description: as §2, §3, §4, §5

[7] = tested on: HT1080 (human fibrosarcoma); test: Cell adhesion assay on matrigel coated wells; assay type: cell-based; conditions: 2.5 µM, percent of adhesion with respect to the control (100%)
Description: (§6) Cell surface, non-integrin molecules such as heparan sulfate proteoglycans (HSPGs) may be involved in the regulation of early adhesive stages of cell-ECM interactions. A cell adhesion assay has been employed to determine if the newly designed heparanase inhibitors were able to interfere with adhesion properties of cancer cells.
(§7) HT1080 (human fibrosarcoma) and U87MG (human glioblastoma astrocytoma) cells were treated for 18-20 h with test compounds in complete medium supplemented with 10% FCS. Then cells were collected, washed in complete medium, and added to matrigel coated wells in triplicate, at previously identified optimal seeding density, and incubated at 37 °C in complete medium for times ranging from 15 minutes to 4h, according to the cell line. After incubation, the wells were washed three times with serum-free medium and the remaining firmly attached cells were stained with crystal-violet 0.1%. Optical density was measured at 560 nm by Victor 3 (Perkin-Elmer) plate analyzer. Each experiment was repeated three times.
as §5

[8] = tested on: U87MG (human glioblastoma astrocytoma); test: Cell adhesion assay on matrigel coated wells; assay type: cell-based; conditions: 2.5 µM, percent of adhesion with respect to the control (100%)
Description: as §6, §7, §5

FGF-1 = test: Real-Time Quantitative PCR of mRNA gene expression in HT1080 cells; assay type: cell-based, human; conditions: 24 h, 2.5 uM, mean value
Description: (§8) To evaluate the effect of heparanase inhibitors on the tumor transcription of genes encoding for proangiogenic factors, such as FGF1/2, VEGF, MMP-9, HSPE-1, the relative mRNA levels were analyzed by quantitative Real-Time Quantitative PCR.
(§9) To perform the assay, HT1080 (human fibrosarcoma) cells were cultured in complete medium containing 10%FCS (fetal calf serum). Cells were plated in 24-well plates and treated at fixed concentration (i.e., highest non-toxic concentration) of test compounds. After 24 h, cells were detached, collected and total RNA extracted by RNeasy Mini Kit (QIAGEN). Following reverse transcription step, FGF1/2, VEGF, MMP-9, HSPE-1 mRNA levels, were quantified by qPCR using the advanced Universal SYBR Green Supermix (Bio Rad) and ABI PRISM 7900HT Thermal Cycler System (Perkin Elmer), according to the manufacturer's instructions. Appropriate no-RT and non-template controls were included in each 96-well PCR reaction, and dissociation analysis was performed at the end of each run to confirm the specificity of the reaction. Relative levels of RNA were calculated using the ddCt method. Standard curve and sample data were run in duplicate. In Table 4 a mean value is reported.

FGF-2 = test: as above; assay type: cell-based, human; conditions: 24 h, 2.5 uM, mean value
Description: as §8, §9

HPSE-1 = test: as above; assay type: cell-based, human; conditions: 24 h, 2.5 uM, mean value
Description: as §8, §9

MMP-9 = test: as above; assay type: cell-based, human; conditions: 24 h, 2.5 uM, mean value
Description: as §8, §9

VEGF = test: as above; assay type: cell-based, human; conditions: 24 h, 2.5 uM, mean value
Description: as §8, §9

Cn1cc(NC(=O)c2ccc(Oc3ccc(C(=O)Nc4cc(C(=O)Nc5cccc(CC(=O)N[C@@H](Cc6ccccc6)C(=O)O)c5)n(C)c4)cc3)cc2)cc1C(=O)Nc1cccc(CC(=O)N[C@@H](Cc2ccccc2)C(=O)O)c1 [Compound 36e, (2S,2'S)-2,2'-((2,2'-(((4,4'-((4,4'-Oxybis(benzoyl))bis(azanediyl))bis(1-methyl-1H-pyrrole-2,2'-carbonyl))bis(azanediyl))bis(3,1-phenylene))bis(acetyl))bis(azanediyl))bis(3-phenylpropanoic acid)]
EC50 [1]: > 2.5 µM | EC50 [2]: > 2.5 µM | EC50 [3]: > 2.5 µM | inhibition at 2.5 µM [4]: 50 to 90% | inhibition at 2.5 µM [5]: < 50% | inhibition at 2.5 µM [6]: 50 to 90% | Adhesion Assay (%) HT1080 [7]: 91.2% | Adhesion Assay (%) U87MG [8]: 73.0% | Gene Expression (% mRNA vs. control) FGF-1 (FGF-1): ~ 62% | Gene Expression (% mRNA vs. control) FGF-2 (FGF-2): ~ 64% | Gene Expression (% mRNA vs. control) HPSE-1 (HPSE-1): ~ 88% | Gene Expression (% mRNA vs. control) MMP-9 (MMP-9): ~ 50% | Gene Expression (% mRNA vs. control) VEGF (VEGF): ~ 51%
